Results reported in ChEMBL document CHEMBL1201862, “PubChem BioAssay data set” (2004).
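Five compound concentrations were applied to cells in 96-well plates for 48 hours; endpoints were derived by simple linear interpolation of the resulting dose-response curve. GI50 is the concentration that inhibits growth by half.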 Active and inactive are the calls of the source. Cut-off read from the data, not from the text of the source: active = GI50 up to about 1.1 µM and inactive = higher.

How the values were obtained:
Assay in all cases: NCI-60 cell line screen, 48 h
HT-29 = system: HT-29
CAKI-1 = system: CAKI-1
UACC-62 = system: UACC-62
HOP-62 = system: HOP-62
SNB-19 = system: SNB-19
SF-539 = system: SF-539
NCI-H226 = system: NCI-H226
OVCAR-3 = system: OVCAR-3
M14 = system: M14
COLO 205 = system: COLO 205
NCI-H23 = system: NCI-H23
OVCAR-8 = system: OVCAR-8
SF-268 = system: SF-268
MOLT-4 = system: MOLT-4
LOX IMVI = system: LOX IMVI
U-251 = system: U-251
EKVX = system: EKVX
CCRF-CEM = system: CCRF-CEM
MCF7 = system: MCF7

Measured: GI50

OCC(O)C(O)C(O)c1nn(-c2ccc(F)cc2)c2nc3cc(Cl)c(Cl)cc3nc12 (configuration not stated)
inactive: HT-29 56 µM | CAKI-1 21.7 µM | UACC-62 16.9 µM | HOP-62 12.7 µM | SNB-19 18.3 µM | SF-539 13.9 µM | NCI-H226 24.2 µM | OVCAR-3 21.8 µM | M14 18.2 µM | COLO 205 69 µM | NCI-H23 18.5 µM | OVCAR-8 11 µM | SF-268 16.9 µM | MOLT-4 18.8 µM | LOX IMVI 18.3 µM | U-251 29.8 µM | EKVX 18.9 µM | CCRF-CEM 14.9 µM

O=C(/C=C/c1c(O)ccc2ccccc12)c1ccccc1Cl
inactive: HT-29 46.5 µM | CAKI-1 81.5 µM | UACC-62 15.8 µM | HOP-62 76.6 µM | SNB-19 49.8 µM | SF-539 26.5 µM | NCI-H226 > 100 µM | OVCAR-3 26.1 µM | M14 18.5 µM | COLO 205 17.8 µM | NCI-H23 19.8 µM | OVCAR-8 32 µM | SF-268 29.3 µM | MOLT-4 33.4 µM | LOX IMVI 24.2 µM | U-251 37.8 µM | EKVX 67.9 µM | CCRF-CEM 17.3 µM

CCCCCCCCC(=O)NCCCNCCCNC(=O)CCCCCCCC
inactive: HT-29 2.92 µM | CAKI-1 13 µM | UACC-62 5.79 µM | HOP-62 13.8 µM | SNB-19 19.1 µM | SF-539 15.7 µM | NCI-H226 17.9 µM | OVCAR-3 15.5 µM | M14 2.07 µM | COLO 205 4.88 µM | NCI-H23 15.7 µM | OVCAR-8 14.9 µM | SF-268 10.2 µM | MOLT-4 3.4 µM | LOX IMVI 1.77 µM | U-251 3.25 µM | EKVX 14.9 µM | CCRF-CEM 3.28 µM

Cn1cnc([N+](=O)[O-])c1Sc1n[nH]c(-c2ccc(Cl)cc2)n1
inactive: HT-29 19.1 µM | CAKI-1 25.1 µM | UACC-62 14.4 µM | HOP-62 21.5 µM | SNB-19 20.7 µM | SF-539 15.3 µM | NCI-H226 14 µM | OVCAR-3 18.1 µM | M14 15 µM | COLO 205 17.1 µM | NCI-H23 18.6 µM | OVCAR-8 16.3 µM | SF-268 22 µM | MOLT-4 12.2 µM | LOX IMVI 15 µM | U-251 19.5 µM | EKVX 23.9 µM | CCRF-CEM 11.8 µM

CC(=O)CN/C(C)=N/Nc1ccc([N+](=O)[O-])cc1[N+](=O)[O-]
inactive: HT-29 > 100 µM | CAKI-1 15.3 µM | MCF7 > 100 µM | UACC-62 80.9 µM | HOP-62 > 100 µM | SNB-19 > 100 µM | SF-539 > 100 µM | NCI-H226 > 100 µM | OVCAR-3 > 100 µM | M14 > 100 µM | COLO 205 > 100 µM | NCI-H23 > 100 µM | OVCAR-8 > 100 µM | SF-268 > 100 µM | MOLT-4 > 100 µM | LOX IMVI > 100 µM | U-251 > 100 µM | EKVX 52.2 µM | CCRF-CEM > 100 µM

C=C(C)[C@H]1CC(=O)[C@@]2(C)C[C@H]3O[C@]3(C)CC/C=C(\C)CC[C@H]12
inactive: HT-29 34.1 µM | CAKI-1 28.2 µM | MCF7 24.8 µM | UACC-62 28.1 µM | HOP-62 74.1 µM | SNB-19 70 µM | SF-539 42 µM | NCI-H226 31.7 µM | OVCAR-3 29.9 µM | M14 > 10 µM | COLO 205 20.8 µM | NCI-H23 34.4 µM | OVCAR-8 98.4 µM | SF-268 77.3 µM | MOLT-4 24 µM | LOX IMVI 57.5 µM | U-251 51.9 µM | EKVX 40.5 µM | CCRF-CEM 32.7 µM

COc1cc(CNc2cnc3ccc(N)cc3n2)cc(OC)c1OC
inactive: HT-29 > 100 µM | CAKI-1 > 100 µM | UACC-62 > 100 µM | HOP-62 > 100 µM | SNB-19 > 100 µM | SF-539 > 100 µM | NCI-H226 > 100 µM | OVCAR-3 > 100 µM | M14 > 100 µM | COLO 205 > 100 µM | NCI-H23 > 100 µM | OVCAR-8 > 100 µM | SF-268 > 100 µM | MOLT-4 > 100 µM | LOX IMVI > 100 µM | U-251 > 100 µM | EKVX > 100 µM | CCRF-CEM > 100 µM

COC(=O)C1(Cc2ccccc2)Cc2ccccc2C1
inactive: HT-29 20.4 µM | CAKI-1 18.5 µM | MCF7 25.1 µM | UACC-62 21.5 µM | HOP-62 32.1 µM | SF-539 50.9 µM | NCI-H226 25.6 µM | OVCAR-3 > 10 µM | M14 17.1 µM | COLO 205 19.1 µM | NCI-H23 23.2 µM | OVCAR-8 22.8 µM | SF-268 23.1 µM | MOLT-4 14.8 µM | LOX IMVI 20.5 µM | U-251 25.8 µM | EKVX 9.84 µM | CCRF-CEM 15.5 µM

CCc1c(C)[nH]c2c1/C(=N/N=C1\CCCc3[nH]c(C)c(CC)c31)CCC2
inactive: HT-29 27.4 µM | CAKI-1 29.4 µM | UACC-62 18.5 µM | HOP-62 > 100 µM | SNB-19 41.4 µM | SF-539 28.2 µM | NCI-H226 17.6 µM | OVCAR-3 14.5 µM | M14 20.7 µM | COLO 205 17.9 µM | NCI-H23 18.5 µM | OVCAR-8 25.8 µM | SF-268 19.3 µM | MOLT-4 12.8 µM | LOX IMVI 20.9 µM | U-251 17 µM | EKVX 33 µM | CCRF-CEM 19.2 µM

Cc1ccc(/N=C2\N=C(N3CC(C)OC(C)C3)c3ccccc32)cc1 (configuration not stated)
inactive: HT-29 23.7 µM | CAKI-1 20.4 µM | UACC-62 29.6 µM | HOP-62 37.9 µM | SNB-19 35 µM | SF-539 17.9 µM | NCI-H226 29 µM | OVCAR-3 24.3 µM | M14 19.3 µM | COLO 205 40.3 µM | NCI-H23 28.5 µM | OVCAR-8 33.4 µM | SF-268 25.9 µM | MOLT-4 20.1 µM | LOX IMVI 28.2 µM | U-251 39.4 µM | EKVX 32.6 µM | CCRF-CEM 23.3 µM

CN(C)CC1COC2Cc3ccccc3C1O2 (configuration not stated)
inactive: HT-29 > 100 µM | CAKI-1 > 100 µM | MCF7 > 100 µM | HOP-62 > 100 µM | SNB-19 > 100 µM | SF-539 > 100 µM | NCI-H226 > 100 µM | OVCAR-3 > 100 µM | M14 > 100 µM | COLO 205 > 100 µM | NCI-H23 > 100 µM | OVCAR-8 > 100 µM | SF-268 > 100 µM | MOLT-4 > 100 µM | LOX IMVI > 100 µM | U-251 > 100 µM | EKVX > 100 µM | CCRF-CEM > 100 µM

CN(C)CCNC(=O)c1cccc2[nH]c(-c3cccnc3)nc12
inactive: HT-29 27.4 µM | CAKI-1 27.6 µM | UACC-62 18.9 µM | HOP-62 18.5 µM | SNB-19 28.1 µM | SF-539 17.7 µM | NCI-H226 22.4 µM | OVCAR-3 20.8 µM | M14 20.9 µM | COLO 205 14.5 µM | NCI-H23 18.8 µM | OVCAR-8 17.5 µM | SF-268 27.9 µM | MOLT-4 25.8 µM | LOX IMVI 18.1 µM | U-251 22.6 µM | EKVX 22.8 µM | CCRF-CEM 28.4 µM

Clc1cccc(Cl)c1C1SCc2nc3ccccc3n21 (configuration not stated)
inactive: HT-29 43.9 µM | CAKI-1 > 100 µM | UACC-62 50.1 µM | HOP-62 > 100 µM | SNB-19 > 100 µM | SF-539 > 100 µM | NCI-H226 > 100 µM | OVCAR-3 > 100 µM | M14 > 100 µM | COLO 205 > 100 µM | NCI-H23 > 100 µM | OVCAR-8 > 100 µM | SF-268 > 100 µM | MOLT-4 19.1 µM | LOX IMVI > 100 µM | U-251 > 100 µM | EKVX 78.3 µM | CCRF-CEM 54.5 µM

CCCCCCCCCCCCSC(=S)c1c(C)[nH]n(-c2ccccc2)c1=O
inactive: HT-29 14.3 µM | CAKI-1 19.1 µM | UACC-62 3.52 µM | HOP-62 5.16 µM | SNB-19 12.4 µM | SF-539 14.3 µM | NCI-H226 14.9 µM | OVCAR-3 13.3 µM | M14 13.4 µM | COLO 205 15.3 µM | NCI-H23 13.3 µM | OVCAR-8 14 µM | SF-268 12.6 µM | MOLT-4 6.61 µM | LOX IMVI 15.9 µM | U-251 2.85 µM | EKVX 19.1 µM | CCRF-CEM 2.9 µM

NS(=O)(=O)c1cc2c(cc1Cl)NCNS2(=O)=O [HYDROCHLOROTHIAZIDE]
inactive: HT-29 > 100 µM | CAKI-1 > 100 µM | MCF7 > 100 µM | HOP-62 > 100 µM | SNB-19 > 100 µM | SF-539 > 100 µM | NCI-H226 > 100 µM | OVCAR-3 > 100 µM | M14 > 100 µM | COLO 205 > 100 µM | NCI-H23 > 100 µM | OVCAR-8 > 100 µM | SF-268 > 100 µM | MOLT-4 > 100 µM | LOX IMVI > 100 µM | U-251 > 100 µM | EKVX > 100 µM | CCRF-CEM > 100 µM
